Like-named read-outs stand apart in the source and are kept apart here.
Key:
[1] = tested on: transformed E. coli BL21(DE3); assay: Growth of transformed E. coli in minimal medium (M9) with 1,2,4-triazole carboxamide protoxin; type: cell-based; conditions: 200 μM, kanamycin, 96-well plates
From the text: It is widely appreciated that ribavirin is a broad-spectrum antiviral nucleoside analog. […] This would form the basis of a ready-made survival based bioassay for ribavirin-1-phosphate biosynthesis directed evolution (FIG. 20). In this selection scheme an E. coli library containing variants of the purine salvage enzyme hypoxanthine phosphoribosyltransferase (HPRT) is replicated into M9 media supplemented with 1,2,4-triazole carboxamide 7 “protoxin.” Active enzymes react triazole with endogenous PRPP 8 to form ribavirin monophosphate 5, an IMPDH poison resulting in growth inhibition. Negative controls with synthetically prepared 1,2,4-triazole carboxamide 7 and complementation experiments with guanosine monophosphate confirmed the validity of this method. Subsequently, a library of mutagenized HPRT in E. coli was evaluated. The assay can be improved by adding nutrients to the medium.
(§1) A small mutant library of ca. 1000 members was replica plated into 96-well plates containing minimal medium (M9), kanamycin and 200 μM synthetically prepared 1,2,4-triazole carboxamide (2), a concentration found to be non-lethal to transformed E. coli BL21(DE3) under these conditions. Plates were grown for 5 days at 37° C. and cell growth was visualized by staining with tetrazolium blue. […] The mutant and wild type HPRT enzymes were expressed as His×6 tagged proteins and purified to homogeneity (FIG. 22B).

[2] = tested on: E. coli BL21(DE3) expressing mutant HPRT; assay: Time course sensitivity determination by triazole dilution assay of HPRT mutant clones; type: cell-based; conditions: growth-impaired HPRT mutant clones, FIG. 22A
From the text: FIG. 22A is a graph of time course of sensitivity of clones identified by triazole sensitivity screening methodology. FIG. 22B is a SDS-PAGE gel of expression and nickel affinity purification of 8B3 HPRT. Left is cell-free extract and right is purified 8B3.
It is widely appreciated that ribavirin is a broad-spectrum antiviral nucleoside analog. […] This would form the basis of a ready-made survival based bioassay for ribavirin-1-phosphate biosynthesis directed evolution (FIG. 20). In this selection scheme an E. coli library containing variants of the purine salvage enzyme hypoxanthine phosphoribosyltransferase (HPRT) is replicated into M9 media supplemented with 1,2,4-triazole carboxamide 7 “protoxin.” Active enzymes react triazole with endogenous PRPP 8 to form ribavirin monophosphate 5, an IMPDH poison resulting in growth inhibition. […] Subsequently, a library of mutagenized HPRT in E. coli was evaluated. […]
as §1, with “conditions.” for “conditions. Plates were grown for 5 days at 37° C. and cell growth was visualized by staining with tetrazolium blue.”

[3] = target: T1, PNP (purine nucleoside phosphorylase) (Escherichia coli, UniProt P0ABP8); assay: Phosphorolysis of inosine vs. dideoxyinosine by PNP (basal activity, Lineweaver-Burke plot); type: biochemical, E. coli; conditions: apparent Km values
T1 sequence (P0ABP8 1-239): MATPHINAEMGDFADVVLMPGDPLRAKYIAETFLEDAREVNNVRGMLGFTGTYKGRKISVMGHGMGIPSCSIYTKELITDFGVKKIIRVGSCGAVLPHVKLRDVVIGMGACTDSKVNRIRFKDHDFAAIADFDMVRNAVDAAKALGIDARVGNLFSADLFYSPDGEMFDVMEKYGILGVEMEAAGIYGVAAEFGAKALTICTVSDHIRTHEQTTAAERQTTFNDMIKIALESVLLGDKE

[4] = target: inosine monophosphate dehydrogenase (IMPDH) (Escherichia coli, UniProt P0ADG7); conditions: cited from earlier work
inosine monophosphate dehydrogenase (IMPDH), sequence (P0ADG7 whole entry): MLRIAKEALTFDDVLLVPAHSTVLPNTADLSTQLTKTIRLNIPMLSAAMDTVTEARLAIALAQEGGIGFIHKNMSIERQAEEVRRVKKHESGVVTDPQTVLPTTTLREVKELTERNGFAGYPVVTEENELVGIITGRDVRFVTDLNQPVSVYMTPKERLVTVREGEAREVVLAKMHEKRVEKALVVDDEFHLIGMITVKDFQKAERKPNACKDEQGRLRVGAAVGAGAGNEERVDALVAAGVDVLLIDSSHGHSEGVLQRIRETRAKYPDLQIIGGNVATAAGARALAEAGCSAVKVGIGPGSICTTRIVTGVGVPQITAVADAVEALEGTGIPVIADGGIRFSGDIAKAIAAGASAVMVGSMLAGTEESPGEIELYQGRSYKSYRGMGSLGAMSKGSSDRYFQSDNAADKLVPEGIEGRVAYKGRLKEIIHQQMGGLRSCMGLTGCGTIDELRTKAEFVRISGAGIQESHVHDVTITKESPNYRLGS

[5] = substrate: OC[C@H]1O[C@@H](n2cnc3c(O)ncnc32)[C@H](O)[C@@H]1O; assay: Phosphorolysis of inosine vs. dideoxyinosine by PNP (basal activity, Lineweaver-Burke plot); type: biochemical, E. coli; conditions: other: substrate of PNP; reverse reaction (phosphorolysis, release of hypoxanthine) monitored with colorimetric assay of FIG. 7

With `NC(=O)c1nc[nH]n1` [1,2,4-triazole carboxamide] the “lethality to transformed E. coli BL21(DE3)” value [1] was “non-lethal” and the “susceptibility of HPRT mutants to triazole in vivo (versus wild type)” value [2] was > 2 fold.

With `O=c1[nH]cnc2c1ncn2[C@H]1CC[C@@H](CO)O1` [ddI, dideoxyinosine] the “Km of ddI relative to that of inosine” value [3] was > 100 times.

In the case of `NC(=O)c1ncn([C@@H]2O[C@H](COP(=O)(O)O)[C@@H](O)[C@H]2O)n1` [ribavirin-1-phosphate 5, ribavirin monophosphate], the “inhibition of IMPDH” value [4] is listed as “potent competitive inhibitor” and the “inhibition of IMPDH” value ([4]; listed as Ribavirin monophosphate) is listed as “competitive inhibitor”.

B1: PNP (purine nucleoside phosphorylase) (Escherichia coli K-12) (protein)
chain: T1 sequence (P0ABP8 1-239)
For B1, the Km [5] was 56 µM.

Reference: patent US20060105375A1, “Bioretrosynthetic methods for preparing products and compositions related thereto” (priority 2004, published 2006)
